Results on 34 molecules are retold here after US10377741B2, “Substituted heteroaryl aldehyde compounds and methods for their use in increasing tissue oxygenation” (Global Blood Therapeutics, Inc., priority 2011, dated 2019).

The target in the assay is T1, purified Hemoglobin S (HbS) (Homo sapiens, UniProt P68871+P69905, E7V).
T1 construct: HbS was purified by a modified procedure; from tissue; host or cells: blood of homozygous sickle cell patients (CHORI); for the polymerization assay purified by the CRO VIRUSYS
The assay can be described thus: Modulation of hemoglobin oxygen affinity: oxygen equilibrium curves (HEMOX) in purified HbS. Format: biochemical, human (homozygous sickle cell patients). To be noted: 25 μM purified HbS, 45 min at 37° C. On the procedure: Oxygen equilibrium curves (OEC) in purified Hemoglobin S (HbS) were measured by the change in p50, the partial pressure of oxygen at which the heme binding sites in the HbS sample are 50% saturated with oxygen. HbS was purified by a modified procedure (Antonini and Brunori, 1971; Heomoglobin and Myoglobin in their Reactions with Ligands; North Holland Publishing Company; Amsterdam, London) from blood obtained from homozygous sickle cell patients though the Hemoglobinopathy Center at Children's Hospital Oakland Research Institute (CHORI) with Institutional Review Board approval. Oxygen equilibrium curves were carried out with a HEMOX analyzer, (TCS Scientific, New Hope, Pa.). Five hundred μL of 250 μM purified HbS were diluted into 4.5 mL of HEMOX buffer (30 mM TES, 130 mM NaCl, 5 mM KCl, pH=7.4) resulting in a final hemoglobin concentration of 25 μM. The compounds were added at the final desired concentrations. The mixture was incubated for 45 min at 37° C. and then transferred to the Hemox sample chamber. The samples were saturated with oxygen by flushing with compressed air for 10 minutes. The samples were then flushed with pure nitrogen and the absorbance of deoxy-Hb was recorded as a function of the solution pO2. The oxygen equilibrium data was then fit to the Hill Model to obtain values for p50. The deoxygenation curves for both HbS alone (control) and HbS in the presence of compound were collected with the TCS software. The p50 for purified Hbs was typically 13.8±1.6. Delta p50 values were obtained from the p50 value for control minus the p50 value for HbS treated with compound divided by the p50 value for the control.
The compounds of Table 1 that were where tested in the assay above were all found to have positive delta p50 values. Delta p50% is calculated from [[p50(HbS) −p50(HbS treated with compound)]/p50(HbS)]×100. Table 2 below lists the delta p50% values where + indicates a delta p50% of between 0 and 29, ++ indicates a delta p50% of between 30 and 50, and +++ indicates a delta p50% of 50 or greater. Unless noted otherwise, the compounds in Table 2 were tested at 30 μM.

Turning to `O=Cc1cnccc1OCc1cccnc1` [Compound 1, 4-(pyridin-3-ylmethoxy)nicotinaldehyde], for the setting “compound at 30 μM”, the “delta p50%” value is “+ (a delta p50% of between 0 and 29)”.
On the same count and under the same terms, the value for `O=Cc1cccnc1OCc1cccn2ccnc12` [Compound 3, 2-(imidazo[1,2-a]pyridin-8-ylmethoxy)nicotinaldehyde] was “+ (a delta p50% of between 0 and 29)”; that for `O=Cc1ncccc1OCc1cccn2ccnc12` [Compound 4, 3-(imidazo[1,2-a]pyridin-8-ylmethoxy)picolinaldehyde] was “+ (a delta p50% of between 0 and 29)”.
On the same count and under the same terms, for `O=Cc1ccncc1OCc1cccn2ccnc12` [Compound 6, 3-(imidazo[1,2-a]pyridin-8-ylmethoxy)isonicotinaldehyde] the value was “+ (a delta p50% of between 0 and 29)”; for `O=Cc1ccncc1OCc1cccn2cncc12` [Compound 7, 3-(imidazo[1,5-a]pyridin-8-ylmethoxy)isonicotinaldehyde], “+ (a delta p50% of between 0 and 29)”.
With `O=Cc1cccnc1CCc1cccn2ccnc12` [Compound 12, 2-(2-(imidazo[1,2-a]pyridin-8-yl)ethyl)nicotinaldehyde], the “delta p50%” value (compound at 100 μM) is “+ (a delta p50% of between 0 and 29)”.
Turning to `COc1cc(C=O)c(OCc2cccnc2C)cn1` [Compound 38, 2-methoxy-5-((2-methylpyridin-3-yl)methoxy)isonicotinaldehyde], the “delta p50%” value (compound at 30 μM) was “+ (a delta p50% of between 0 and 29)”.
The same measure, in the same setting: the value for `COc1cc(C=O)c(OCc2cnccc2C)cn1` [Compound 39, 2-methoxy-5-((4-methylpyridin-3-yl)methoxy)isonicotinaldehyde] was “+ (a delta p50% of between 0 and 29)”.
As for `COc1cc(C=O)c(OCc2ccc(C(F)(F)F)nc2)cn1` [Compound 40, 2-methoxy-5-((6-(trifluoromethyl)pyridin-3-yl)methoxy)isonicotinaldehyde], for the setting “compound at 100 μM”, the “delta p50%” value was “+ (a delta p50% of between 0 and 29)”.
Take `COc1cc(C=O)c(OCc2ccc(C)nc2)cn1` [Compound 41, 2-methoxy-5-((6-methylpyridin-3-yl)methoxy)isonicotinaldehyde]: the “delta p50%” value (compound at 30 μM) is “+ (a delta p50% of between 0 and 29)”.
With `COc1cc(C=O)c(OCc2cccnc2)cn1` [Compound 42, 2-methoxy-5-(pyridin-3-ylmethoxy)isonicotinaldehyde], the “delta p50%” value (compound at 30 μM) was “+ (a delta p50% of between 0 and 29)”.
Same read-out and setting: the value for `COc1cc(C=O)c(OCc2ccncc2C)cn1` [Compound 47, 2-methoxy-5-((3-methylpyridin-4-yl)methoxy)isonicotinaldehyde] was “+ (a delta p50% of between 0 and 29)”.
`COc1cc(C=O)c(OCc2ccncc2Br)cn1` [Compound 48, 5-((3-bromopyridin-4-yl)methoxy)-2-methoxyisonicotinaldehyde]: the “delta p50%” value (compound at 100 μM) was “++ (a delta p50% of between 30 and 50)”.
With `Cc1ccc(OCc2cccn3ccnc23)c(C=O)n1` [Compound 49, 3-(imidazo[1,2-a]pyridin-8-ylmethoxy)-6-methylpicolinaldehyde], the “delta p50%” value (compound at 30 μM) is “++ (a delta p50% of between 30 and 50)”.
As to `COc1cc(C(O)OC)c(OCc2cccc3nccn23)cn1` (stereo not shown) [Compound 50, (5-(imidazo[1,2-a]pyridin-5-ylmethoxy)-2-methoxypyridin-4-yl)(methoxy)methanol], the “delta p50%” value (compound at 30 μM) was “+ (a delta p50% of between 0 and 29)”.
On the same count and under the same terms, for `O=Cc1ccncc1NC(=O)c1cccn2ccnc12` [Compound 51, N-(4-formylpyridin-3-yl)imidazo[1,2-a]pyridine-8-carboxamide] the value was “+ (a delta p50% of between 0 and 29)”.
Regarding `COc1cc(C=O)c(OCc2cn3cc(C(F)(F)F)ccc3n2)cn1` [Compound 52, 2-methoxy-5-((6-(trifluoromethyl)imidazo[1,2-a]pyridin-2-yl)methoxy)isonicotinaldehyde], the “delta p50%” value (compound at 100 μM) was “+ (a delta p50% of between 0 and 29)”.
Still for that read-out and setting: the value for `COc1cc(C=O)c(OCc2ccn(C)c(=O)c2)cn1` [Compound 54, 2-methoxy-5-((1-methyl-2-oxo-1,2-dihydropyridin-4-yl)methoxy)isonicotinaldehyde] was “++ (a delta p50% of between 30 and 50)”; that for `COc1cc(C=O)c(OCc2nc3ccccn3c2Br)cn1` [Compound 55, 5-((3-bromoimidazo[1,2-a]pyridin-2-yl)methoxy)-2-methoxyisonicotinaldehyde] was “+ (a delta p50% of between 0 and 29)”; that for `COc1cc(C=O)c(OCc2cn3cc(Br)ccc3n2)cn1` [Compound 56, 5-((6-bromoimidazo[1,2-a]pyridin-2-yl)methoxy)-2-methoxyisonicotinaldehyde] was “+ (a delta p50% of between 0 and 29)”.
With `COc1cc(C=O)c(OCc2cn3cccc(Br)c3n2)cn1` [Compound 57, 5-((8-bromoimidazo[1,2-a]pyridin-2-yl)methoxy)-2-methoxyisonicotinaldehyde], the “delta p50%” value (compound at 100 μM) was “++ (a delta p50% of between 30 and 50)”.
In the case of `COc1cc(C=O)c(OCc2nc3ccccn3c2-c2ccn[nH]2)cn1` [Compound 59, 5-((3-(1H-pyrazol-5-yl)imidazo[1,2-a]pyridin-2-yl)methoxy)-2-methoxyisonicotinaldehyde], the “delta p50%” value (compound at 30 μM) was “+ (a delta p50% of between 0 and 29)”.
Still for that read-out and setting: for `COc1cc(C=O)c(OCc2cn3cccc(-c4ccnn4C)c3n2)cn1` [Compound 61, 2-methoxy-5-((8-(1-methyl-1H-pyrazol-5-yl)imidazo[1,2-a]pyridin-2-yl)methoxy)isonicotinaldehyde] the value was “+ (a delta p50% of between 0 and 29)”; for `COc1cc(C=O)c(OCc2ccc(C#N)nc2)cn1` [Compound 62, 5-((4-formyl-6-methoxypyridin-3-yloxy)methyl)picolinonitrile], “+ (a delta p50% of between 0 and 29)”.
The same measure, in the same setting: for `COc1cc(C=O)c(OCc2cccnc2C#N)cn1` [Compound 64, 3-((4-formyl-6-methoxypyridin-3-yloxy)methyl)picolinonitrile] the value was “+ (a delta p50% of between 0 and 29)”; for `COc1cc(C2OCCO2)c(OCc2cn3cccc(C(N)=O)c3n2)cn1` [Compound 68, 2-((4-(1,3-dioxolan-2-yl)-6-methoxypyridin-3-yloxy)methyl)imidazo[1,2-a]pyridine-8-carboxamide], “+ (a delta p50% of between 0 and 29)”; for `CNC(=O)c1cccn2cc(COc3cnc(OC)cc3C3OCCO3)nc12` [Compound 69, 2-((4-(1,3-dioxolan-2-yl)-6-methoxypyridin-3-yloxy)methyl)-N-methylimidazo[1,2-a]pyridine-8-carboxamide], “+ (a delta p50% of between 0 and 29)”.
With `COc1cc(C=O)c(OCc2cncc(-c3ccn[nH]3)c2)cn1` [Compound 70, 5-((5-(1H-pyrazol-5-yl)pyridin-3-yl)methoxy)-2-methoxyisonicotinaldehyde], the “delta p50%” value (compound at 30 μM) is “+ (a delta p50% of between 0 and 29)”.
Same read-out and setting: for `COc1cc(C=O)c(OCc2cnccc2-c2ccn[nH]2)cn1` [Compound 71, 5-((4-(1H-pyrazol-5-yl)pyridin-3-yl)methoxy)-2-methoxyisonicotinaldehyde] the value was “+ (a delta p50% of between 0 and 29)”.
On the same count and under the same terms, the value for `CNC(=O)c1cccn2cc(COc3cnc(OC)cc3C(O)O)nc12` [Compound 72, 2-((4-(dihydroxymethyl)-6-methoxypyridin-3-yloxy)methyl)-N-methylimidazo[1,2-a]pyridine-8-carboxamide] was “+ (a delta p50% of between 0 and 29)”; that for `COc1cc(C(O)O)c(OCc2cn3cccc(C(N)=O)c3n2)cn1` [Compound 73, 2-((4-(dihydroxymethyl)-6-methoxypyridin-3-yloxy)methyl)imidazo[1,2-a]pyridine-8-carboxamide] was “+ (a delta p50% of between 0 and 29)”; that for `COc1cc(C=O)c(OCc2cncc(-c3ccn(C)n3)c2)cn1` [Compound 75, 2-methoxy-5-((5-(1-methyl-1H-pyrazol-3-yl)pyridin-3-yl)methoxy)isonicotinaldehyde] was “+ (a delta p50% of between 0 and 29)”.
Take `COc1cc(C=O)c(OCc2cncc(-c3cn[nH]c3)c2)cn1` [Compound 76, 5-((5-(1H-pyrazol-4-yl)pyridin-3-yl)methoxy)-2-methoxyisonicotinaldehyde]: the “delta p50%” value (compound at 30 μM) is “+ (a delta p50% of between 0 and 29)”.
As for `COc1cc(C=O)c(OCc2cncc(-c3cnn(C)c3)c2)cn1` [Compound 77, 2-methoxy-5-((5-(1-methyl-1H-pyrazol-4-yl)pyridin-3-yl)methoxy)isonicotinaldehyde], the “delta p50%” value (compound at 30 μM) is “+ (a delta p50% of between 0 and 29)”.
